# Test results taken from ChEMBL document CHEMBL3885881, “DrugMatrix”.
# Species: Rattus norvegicus
# Experiment: DrugMatrix - Regimen: Daily Repeat
# Type: toxicity, organism-based, Sprague-Dawley
# Parameters: regimen Daily Repeat, gender Male, age 6-8 weeks
# Settings: in vivo, po, route oral GAVAGE, vehicle .5 % CMC; for BASOPHIL / EOSINOPHIL / ERYTHROCYTE COUNT / HEMATOCRIT / LEUKOCYTE COUNT / LYMPHOCYTE / MEAN CORPUSCULAR HEMOGLOBIN / MEAN CORPUSCULAR HEMOGLOBIN CONCENTRATION / MEAN CORPUSCULAR VOLUME / MONOCYTE / NEUTROPHIL / PLATELET COUNT: tissue Blood; for ALANINE AMINOTRANSFERASE / ALBUMIN / ALKALINE PHOSPHATASE / ASPARTATE AMINOTRANSFERASE / BLOOD UREA NITROGEN / CHLORIDE / CHOLESTEROL / CREATINE PHOSPHOKINASE / CREATININE / GLUCOSE / PHOSPHORUS / POTASSIUM / SODIUM / TOTAL BILIRUBIN / TOTAL PROTEIN: tissue Plasma
# [1] = 0 mg/kg, 72 h, dose level Control, time 3 day
# [2] = 0 mg/kg, 120 h, dose level Control, time 5 day
# [3] = 3 mg/kg, 72 h, dose level Low, time 3 day
# [4] = 3 mg/kg, 120 h, dose level Low, time 5 day
smiles,measurement,setting,value
NCCCC(O)(P(=O)(O)O)P(=O)(O)O [ALENDRONIC ACID],BASOPHIL,[1],0%
same,EOSINOPHIL,[1],0%
same,ERYTHROCYTE COUNT,[1],6.19 x10E6/uL
same,HEMATOCRIT,[1],36.94%
same,LEUKOCYTE COUNT,[1],11.54 x10E3/uL
same,LYMPHOCYTE,[1],84.8%
same,MEAN CORPUSCULAR HEMOGLOBIN,[1],23.58 pg
same,MEAN CORPUSCULAR HEMOGLOBIN CONCENTRATION,[1],39.44 G/DL
same,MEAN CORPUSCULAR VOLUME,[1],59.76 fL
same,MONOCYTE,[1],1.4%
same,NEUTROPHIL,[1],13.8%
same,PLATELET COUNT,[1],1068.8 x10E3/uL
same,ALANINE AMINOTRANSFERASE,[1],38.17 u/L
same,ALBUMIN,[1],3.88 G/DL
same,ALKALINE PHOSPHATASE,[1],391.33 u/L
same,ASPARTATE AMINOTRANSFERASE,[1],69.83 u/L
same,BLOOD UREA NITROGEN,[1],15 mg/dL
same,CHLORIDE,[1],104.17 MEQ/L
same,CHOLESTEROL,[1],72.17 mg/dL
same,CREATINE PHOSPHOKINASE,[1],174.33 u/L
same,CREATININE,[1],0.58 mg/dL
same,GLUCOSE,[1],192.67 mg/dL
same,PHOSPHORUS,[1],10.52 mg/dL
same,POTASSIUM,[1],6.8 MEQ/L
same,SODIUM,[1],149.67 MEQ/L
same,TOTAL BILIRUBIN,[1],0.78 mg/dL
same,TOTAL PROTEIN,[1],6.28 G/DL
same,BASOPHIL,[2],0%
same,EOSINOPHIL,[2],0.17%
same,ERYTHROCYTE COUNT,[2],6.72 x10E6/uL
same,HEMATOCRIT,[2],40.02%
same,LEUKOCYTE COUNT,[2],9.5 x10E3/uL
same,LYMPHOCYTE,[2],87.17%
same,MEAN CORPUSCULAR HEMOGLOBIN,[2],23.57 pg
same,MEAN CORPUSCULAR HEMOGLOBIN CONCENTRATION,[2],39.62 G/DL
same,MEAN CORPUSCULAR VOLUME,[2],59.55 fL
same,MONOCYTE,[2],1.67%
same,NEUTROPHIL,[2],11%
same,PLATELET COUNT,[2],1053.67 x10E3/uL
same,ALANINE AMINOTRANSFERASE,[2],26.33 u/L
same,ALBUMIN,[2],4.02 G/DL
same,ALKALINE PHOSPHATASE,[2],316.67 u/L
same,ASPARTATE AMINOTRANSFERASE,[2],61.33 u/L
same,BLOOD UREA NITROGEN,[2],18.67 mg/dL
same,CHLORIDE,[2],108 MEQ/L
same,CHOLESTEROL,[2],65.17 mg/dL
same,CREATINE PHOSPHOKINASE,[2],161.17 u/L
same,CREATININE,[2],0.75 mg/dL
same,GLUCOSE,[2],177.33 mg/dL
same,PHOSPHORUS,[2],9.72 mg/dL
same,POTASSIUM,[2],6.18 MEQ/L
same,SODIUM,[2],150.5 MEQ/L
same,TOTAL BILIRUBIN,[2],0.68 mg/dL
same,TOTAL PROTEIN,[2],6.55 G/DL
same,BASOPHIL,[3],0%
same,EOSINOPHIL,[3],0%
same,ERYTHROCYTE COUNT,[3],5.67 x10E6/uL
same,HEMATOCRIT,[3],34.63%
same,LEUKOCYTE COUNT,[3],9.73 x10E3/uL
same,LYMPHOCYTE,[3],86.33%
same,MEAN CORPUSCULAR HEMOGLOBIN,[3],24.23 pg
same,MEAN CORPUSCULAR HEMOGLOBIN CONCENTRATION,[3],39.67 G/DL
same,MEAN CORPUSCULAR VOLUME,[3],61.13 fL
same,MONOCYTE,[3],1.33%
same,NEUTROPHIL,[3],12.33%
same,PLATELET COUNT,[3],1035.67 x10E3/uL
same,ALANINE AMINOTRANSFERASE,[3],34 u/L
same,ALBUMIN,[3],3.77 G/DL
same,ALKALINE PHOSPHATASE,[3],322.33 u/L
same,ASPARTATE AMINOTRANSFERASE,[3],69 u/L
same,BLOOD UREA NITROGEN,[3],16 mg/dL
same,CHLORIDE,[3],105.67 MEQ/L
same,CHOLESTEROL,[3],63 mg/dL
same,CREATINE PHOSPHOKINASE,[3],139.33 u/L
same,CREATININE,[3],0.6 mg/dL
same,GLUCOSE,[3],171 mg/dL
same,PHOSPHORUS,[3],10.3 mg/dL
same,POTASSIUM,[3],6.6 MEQ/L
same,SODIUM,[3],150 MEQ/L
same,TOTAL BILIRUBIN,[3],0.57 mg/dL
same,TOTAL PROTEIN,[3],5.97 G/DL
same,BASOPHIL,[4],0%
same,EOSINOPHIL,[4],0.67%
same,ERYTHROCYTE COUNT,[4],6.7 x10E6/uL
same,HEMATOCRIT,[4],40.67%
same,LEUKOCYTE COUNT,[4],10.57 x10E3/uL
same,LYMPHOCYTE,[4],75%
same,MEAN CORPUSCULAR HEMOGLOBIN,[4],24.1 pg
same,MEAN CORPUSCULAR HEMOGLOBIN CONCENTRATION,[4],39.7 G/DL
same,MEAN CORPUSCULAR VOLUME,[4],60.77 fL
same,MONOCYTE,[4],3%
same,NEUTROPHIL,[4],21.33%
same,PLATELET COUNT,[4],904.33 x10E3/uL
same,ALANINE AMINOTRANSFERASE,[4],30.67 u/L
same,ALBUMIN,[4],4.1 G/DL
same,ALKALINE PHOSPHATASE,[4],352.33 u/L
same,ASPARTATE AMINOTRANSFERASE,[4],64 u/L
same,BLOOD UREA NITROGEN,[4],14.67 mg/dL
same,CHLORIDE,[4],106 MEQ/L
same,CHOLESTEROL,[4],64.33 mg/dL
same,CREATINE PHOSPHOKINASE,[4],130.33 u/L
same,CREATININE,[4],0.77 mg/dL
same,GLUCOSE,[4],191 mg/dL
same,PHOSPHORUS,[4],10.83 mg/dL
same,POTASSIUM,[4],6.4 MEQ/L
same,SODIUM,[4],150.67 MEQ/L
same,TOTAL BILIRUBIN,[4],0.83 mg/dL
same,TOTAL PROTEIN,[4],6.73 G/DL
